Assay [1] relates to HCV genotype 1a (H77 strain) replicon in HUH-7 cells. In words: HCV replicon luciferase reporter assay, genotype 1a. Conditions: Hepatitis C virus, Huh-7, 72 h, HCV genotype 1a replicon luciferase, 3 days incubation, class symbols, read-out: LE_1a (EC50, range). It is filed as cell-based. The text has this: (§1) An HCV replicon whole cell system was established as described by Lohmann V, Korner F, Koch J, Herian U, Theilmann L, Bartenschlager R., Science 285(5424):110-3 (1999) and modified to introduce a luciferase reporter, as first described by Krieger et al (Krieger N, Lohmann V, and Bartenschlager R, J. Virol. 75(10):4614-4624 (2001)). CDNA encoding a humanized form of the Renilla luciferase gene and a linker sequence fused directly to the 3′-end of the luciferase gene were introduced into the replicon construct using an Asc1 restriction site located in core, directly upstream of the neomycin marker gene. The adaptive mutation at position 1179 (serine to isoleucine) was also introduced (Blight K J, Kolykhalov, A A, Rice, C M, Science 290(5498):1972-1974). A stable cell line constitutively expressing this HCV replicon construct was generated by first linearizing plasmid DNAs with ScaI. RNA transcripts were synthesized in vitro using the T7 MegaScript transcription kit (Ambion, Austin, Tex.) according to manufacturer's directions. In vitro transcripts of the cDNA were transfected into the human hepatoma cell line, HUH-7. […] Resulting cell lines were characterized for positive and negative strand RNA production and protein production over time.
A stable HCV replicon luciferase reporter cell line representing the genotype 1a H77 strain (Yanagi M, Purcell R H, Emerson S U, et al. Transcripts from a single full-length cDNA clone of hepatitis C virus are infectious when directly transfected into the liver of a chimpanzee. Proc Natl Acad Sci USA 1997; 94(16):8738-8743) was generated as described previously for the genotype 1b (Con1) replicon luciferase cell line. The replicon construct was modified by introducing mutations were introduced into the genes encoding the NS3 helicase domain (proline replaced by leucine at position 1496) and NS5A (serine to isoleucine at position 2204) to improve replication in cell culture.
(§2) HCV replicon luciferase assays were developed to monitor the inhibitory effects of compounds described in the disclosure on HCV genotypes 1a and 1b viral replication. HUH-7 cells, constitutively expressing the HCV replicon, were grown in Dulbecco's Modified Eagle Media (DMEM) (Gibco-BRL) containing 10% Fetal calf serum (FCS) (Sigma) and 1 mg/mL G418 (Gibco-BRL). Compounds were serially diluted 3 folds in DMSO for a twenty-point titration and subsequently transferred to sterile 384-well tissue-culture treated plates (Corning cat #3571). The plates were then seeded with 50 μL of cells at a density of 3.0×10^3 cells/well in DMEM containing 4% FCS (final DMSO concentration at 0.5%). After 3 days incubation at 37° C., cells were analyzed for Renilla Luciferase activity using the EnduRen as substrate (Promega cat #E6485). The EnduRen substrate was diluted in DMEM and then added to the plates to a final concentration of 7.5 μM. The plates were incubated for 2 hrs at 37° C. and then read immediately for 30 seconds with Viewlux Imager (PerkinElmer) using a luminescence program. To assess cytotoxicity of compounds, CC50 values were generated by multiplexing the EnduRen-containing plates with Cell Titer-Blue (Promega, cat # G8082). Cell-Titer Blue (3 μL) was added to each well and incubated for 8 hrs at 37° C. The fluorescence signal from each well was read, with an excitation wavelength at 525/10 nm and an emission wavelength of 598/10 nm, using the Viewlux Imager.
(§3) The EC50 values for compounds were calculated by using a four-parameter logistic equation: y=A+((B−A)/(1+((C/x)^D))), where A and B denotes minimal and maximal % inhibition, respectively, C is the EC50, D is the hill slope and x represents compound concentration.
(A replicon is a self-replicating genome or part of one, used to study replication in cells.)

The test system of assay [2] is HCV genotype 1b (Con1) replicon in HUH-7 cells. In words: HCV replicon luciferase reporter assay, genotype 1b. The format is cell-based. Conditions: Hepatitis C virus, 72 h, HCV genotype 1b replicon luciferase, 3 days incubation, class symbols, read-out: LE_1b (EC50, range).
Text: as §1, with “time. […]” for “time.”
as §2, §3

Here are results for nine compounds from US9527885B2, “Hepatitis C virus inhibitors” (BRISTOL-MYERS SQUIBB COMPANY, priority 2011, dated 2016).

Take `CC[C@@H]1C[C@H](C)CC/C=C\[C@@H]2C[C@@]2(C(=O)NS(=O)(=O)C2CC2)NC(=O)[C@@H]2C[C@@H](Oc3ncc(OC)c4ccc(F)cc34)CN2C(=O)[C@H]1NC(=O)OC(C)(C)C` [Compound 4001, tert-butyl tert-butyl (2R,6S,7R,9R,13aS,14aR,16aS,Z)-14a-(cyclopropylsulfonylcarbamoyl)-7-ethyl-2-(7-fluoro-4-methoxyisoquinolin-1-yloxy)-9-methyl-5,16-dioxo-1,2,3,5,6,7,8,9,10,11,13a,14,14a,15,16,16a-hexadecahydrocyclopropa[e]pyrrolo[1,2-a][1,4]diazacyclopentadecin-6-ylcarbamate]: the EC50 in assay [1] and in assay [2] was < 5.46 nM each time.

For `CC[C@@H]1C[C@H](C)CC/C=C\[C@@H]2C[C@@]2(C(=O)NS(=O)(=O)C2CC2)NC(=O)[C@@H]2C[C@@H](Oc3ncc(OC)c4ccccc34)CN2C(=O)[C@H]1NC(=O)OC(C)(C)C` [Compound 4007, tert-butyl (2R,6S,7R,9R,13aS,14aR,16aS,Z)-14a-(cyclopropylsulfonylcarbamoyl)-7-ethyl-2-(4-methoxyisoquinolin-1-yloxy)-9-methyl-5,16-dioxo-1,2,3,5,6,7,8,9,10,11,13a,14,14a,15,16,16a-hexadecahydrocyclopropa[e]pyrrolo[1,2-a][1,4]diazacyclopentadecin-6-ylcarbamate], the EC50 in assay [1] and in assay [2] was < 5.46 nM in each case.

Turning to `CC[C@@H]1C[C@H](C)CC/C=C\[C@@H]2C[C@@]2(C(=O)NS(=O)(=O)C2CC2)NC(=O)[C@@H]2C[C@@H](Oc3ncc(OC)c4ccccc34)CN2C(=O)[C@H]1NC(=O)OC(C)(C)C(F)(F)F` [Compound 4008, 1,1,1-trifluoro-2-methylpropan-2-yl (2R,6S,7R,9R,13aS,14aR,16aS,Z)-14a-(cyclopropylsulfonylcarbamoyl)-7-ethyl-2-(4-methoxyisoquinolin-1-yloxy)-9-methyl-5,16-dioxo-1,2,3,5,6,7,8,9,10,11,13a,14,14a,15,16,16a-hexadecahydrocyclopropa[e]pyrrolo[1,2-a][1,4]diazacyclopentadecin-6-ylcarbamate], the EC50 in assay [1] and in assay [2] was < 5.46 nM throughout.

On to `COc1ccc2c(O[C@@H]3CC4C(=O)N[C@]5(C(=O)NS(=O)(=O)C6(F)CC6)C[C@H]5/C=C\CC[C@@H](C)C[C@@H](C)[C@H](NC(=O)C(C)(C)C)C(=O)N4C3)nccc2c1` (stereo partly drawn) [Compound 4015], for which the EC50 in assay [1] and in assay [2] was < 5.46 nM each time.

As for `C[C@@H]1CC/C=C\[C@@H]2C[C@@]2(C(=O)NS(=O)(=O)C2CC2)NC(=O)[C@@H]2C[C@@H](Oc3ncc(OCC4CC4)c4ccccc34)CN2C(=O)[C@@H](NC(=O)OC(C)(C)C(F)(F)F)[C@H](C)C1` [Compound 4030, 1,1,1-trifluoro-2-methylpropan-2-yl (2R,6S,7R,9R,13aS,14aR,16aS,Z)-2-(4-(cyclopropylmethoxy)isoquinolin-1-yloxy)-14a-(cyclopropylsulfonylcarbamoyl)-7,9-dimethyl-5,16-dioxo-1,2,3,5,6,7,8,9,10,11,13a,14,14a,15,16,16a-hexadecahydrocyclopropa[e]pyrrolo[1,2-a][1,4]diazacyclopentadecin-6-ylcarbamate], the EC50 in assay [1] and in assay [2] was < 5.46 nM throughout.

As for `C[C@@H]1CC/C=C\[C@@H]2C[C@@]2(C(=O)NS(=O)(=O)C2CC2)NC(=O)[C@@H]2C[C@@H](Oc3ncc(OC(F)F)c4c(Cl)cccc34)CN2C(=O)[C@@H](NC(=O)OC(C)(C)C(F)(F)F)[C@H](C)C1` [Compound 4031, 1,1,1-trifluoro-2-methylpropan-2-yl (2R,6S,7R,9R,13aS,14aR,16aS,Z)-2-(5-chloro-4-(difluoromethoxy)isoquinolin-1-yloxy)-14a-(cyclopropylsulfonylcarbamoyl)-7,9-dimethyl-5,16-dioxo-1,2,3,5,6,7,8,9,10,11,13a,14,14a,15,16,16a-hexadecahydrocyclopropa[e]pyrrolo[1,2-a][1,4]diazacyclopentadecin-6-ylcarbamate], the EC50 in assay [1] and in assay [2] was < 5.46 nM in each case.

Consider `COc1cnc(O[C@@H]2C[C@H]3C(=O)N[C@]4(C(=O)NS(=O)(=O)C5(C)CC5)C[C@H]4/C=C\CC[C@H](C)C[C@@H](C)[C@H](NC(=O)OC(C)(C)C)C(=O)N3C2)c2ccccc12` [Compound 4058, tert-butyl (2R,6S,7R,9S,13aS,14aR,16aS,Z)-2-(4-methoxyisoquinolin-1-yloxy)-7,9-dimethyl-14a-(1-methylcyclopropylsulfonylcarbamoyl)-5,16-dioxo-1,2,3,5,6,7,8,9,10,11,13a,14,14a,15,16,16a-hexadecahydrocyclopropa[e]pyrrolo[1,2-a][1,4]diazacyclopentadecin-6-ylcarbamate], for which the EC50 in assay [1] and in assay [2] was < 5.46 nM each time.

As to `C[C@@H]1CC/C=C\[C@@H]2C[C@@]2(C(=O)NS(=O)(=O)C2CC2)NC(=O)[C@@H]2C[C@@H](Oc3nccc4ccc(F)cc34)CN2C(=O)[C@@H](NC(=O)OC(C)(C)C(F)(F)F)[C@H](C)C1` [Compound 4072, 1,1,1-trifluoro-2-methylpropan-2-yl (2R,6S,7R,9R,13aS,14aR,16aS,Z)-14a-(cyclopropylsulfonylcarbamoyl)-2-(7-fluoroisoquinolin-1-yloxy)-7,9-dimethyl-5,16-dioxo-1,2,3,5,6,7,8,9,10,11,13a,14,14a,15,16,16a-hexadecahydrocyclopropa[e]pyrrolo[1,2-a][1,4]diazacyclopentadecin-6-ylcarbamate], the EC50 in assay [1] and in assay [2] was < 5.46 nM throughout.

In the case of `COc1ccc2c(O[C@@H]3C[C@H]4C(=O)N[C@]5(C(=O)NS(=O)(=O)C6(C)CC6)C[C@H]5/C=C\CC[C@@H](C)C[C@@H](C)[C@H](NC(=O)OC(C)(C)C)C(=O)N4C3)ncc(N3CCN(S(C)(=O)=O)CC3)c2c1` [Compound 4121, tert-butyl (2R,6S,7R,9R,13aS,14aR,16aS,Z)-2-(6-methoxy-4-(4-(methylsulfonyl)piperazin-1-yl)isoquinolin-1-yloxy)-7,9-dimethyl-14a-(1-methylcyclopropylsulfonylcarbamoyl)-5,16-dioxo-1,2,3,5,6,7,8,9,10,11,13a,14,14a,15,16,16a-hexadecahydrocyclopropa[e]pyrrolo[1,2-a][1,4]diazacyclopentadecin-6-ylcarbamate], the EC50 in assay [1] and in assay [2] was < 5.46 nM each time.

The EC50 is the concentration at which the effect is half-maximal.
